System: inflammatory lesions in patient with acne
Assay: 2-(2-ethoxyethoxy)ethanol tested against an active ingredient (for example dapsone gel) in patients with acne
Type: in vivo, human
From the text: Without being bound to any theory, we believe that the mechanism for this action is the 2-(2-ethoxyethoxy)ethanol may fluidize the lipids on the skin, thereby retarding the formation of microcomedones. If 2-(2-ethoxyethoxy)ethanol keep lipids from “gluing together” the desquamated keratinocytes, the number of clogged follicles, and subsequently the number of inflammatory lesions, would potentially be reduced. 2-(2-ethoxyethoxy)ethanol in the compositions of the present invention provides a means for stopping the formation of acne at its source; lipids and desquamated keratinocytes clogging pores leading to inflammation and formation of comedones. The compositions of the present invention may be active in clearing acne if used as a routine cleanser.

CCOCCOCCO [2-(2-ethoxyethoxy)ethanol]
number of inflammatory lesions: appears to have activity to reduce the number of inflammatory lesions

— patent publication US20220331269A1, “COMPOSITIONS FOR TREATING ACNE” (Botanix Pharmaceuticals Ltd., priority 2017, published 2022)
